The source of these data is the supplement of paper PMC10307832.

Holding throughout (test): relative viability (nuclei count vs DMSO), 5 days (fraction); higher = more cells survive
Compound in the assay “17-AAG + AZD7762”: C=CCNC1=C2C[C@@H](C)C[C@H](OC)[C@H](O)[C@@H](C)/C=C(\C)[C@H](OC(N)=O)[C@@H](OC)/C=C\C=C(/C)C(=O)NC(=CC1=O)C2=O [17-AAG] + NC(=O)Nc1cc(-c2cccc(F)c2)sc1C(=O)N[C@H]1CCCNC1 [AZD7762] (partner 0.2 µM)
An outline of the steps:
(§1)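 Relative viability was taken as the ratio of nuclei in treated wells to nuclei in vehicle wells. Lung cancer cell lines in 1536-well plates received compounds by pin tool one day after seeding, either one drug alone or a fixed anchor-drug dose plus five library-drug doses (not always all listed) in √10 steps. Nuclei were counted on 4× images after 5 days of treatment, and values are medians of duplicate plates.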

Compound in the assay “17-AAG + Palbociclib”: C=CCNC1=C2C[C@@H](C)C[C@H](OC)[C@H](O)[C@@H](C)/C=C(\C)[C@H](OC(N)=O)[C@@H](OC)/C=C\C=C(/C)C(=O)NC(=CC1=O)C2=O [17-AAG] + CC(=O)c1c(C)c2cnc(Nc3ccc(N4CCNCC4)cn3)nc2n(C2CCCC2)c1=O [Palbociclib] (partner 0.5 µM)
A digest of the protocol:
as §1

Compound in the assay “17-AAG + Vorinostat”: C=CCNC1=C2C[C@@H](C)C[C@H](OC)[C@H](O)[C@@H](C)/C=C(\C)[C@H](OC(N)=O)[C@@H](OC)/C=C\C=C(/C)C(=O)NC(=CC1=O)C2=O [17-AAG] + O=C(CCCCCCC(=O)Nc1ccccc1)NO [Vorinostat] (partner 1 µM)
An outline of the steps:
as §1

Compound in the assay “17-AAG + Crizotinib”: C=CCNC1=C2C[C@@H](C)C[C@H](OC)[C@H](O)[C@@H](C)/C=C(\C)[C@H](OC(N)=O)[C@@H](OC)/C=C\C=C(/C)C(=O)NC(=CC1=O)C2=O [17-AAG] + C[C@@H](Oc1cc(-c2cnn(C3CCNCC3)c2)cnc1N)c1c(Cl)ccc(F)c1Cl [Crizotinib] (partner 1 µM)
A digest of the protocol: as §1

As for NCI-H647, the relative viability was 0.487 with 17-AAG + AZD7762 (first compound 0.00128 µM); 0.175 in the assay with 17-AAG + AZD7762 (first compound 0.004048 µM); 0.0631 with 17-AAG + AZD7762 (first compound 0.0128 µM); 0.074 with 17-AAG + AZD7762 (first compound 0.04048 µM); 0.0589 in the assay with 17-AAG + AZD7762 (first compound 0.128 µM); 0.414 with 17-AAG + Palbociclib (first compound 0.00128 µM). For the same cell line, the relative viability with 17-AAG + Palbociclib (first compound 0.004048 µM) was 0.284; with 17-AAG + Palbociclib (first compound 0.0128 µM), 0.102; with 17-AAG + Palbociclib (first compound 0.04048 µM) it was 0.0567; with 17-AAG + Palbociclib (first compound 0.128 µM), 0.0782; in the assay with 17-AAG + Vorinostat (first compound 0.00128 µM), 0.584; in the assay with 17-AAG + Vorinostat (first compound 0.004048 µM) it was 0.533. Also, the relative viability with 17-AAG + Vorinostat (first compound 0.0128 µM) was 0.132; in the assay with 17-AAG + Vorinostat (first compound 0.04048 µM), 0.116; in the assay with 17-AAG + Vorinostat (first compound 0.128 µM) it was 0.0825; with 17-AAG + Crizotinib (first compound 0.00128 µM), 1.11; with 17-AAG + Crizotinib (first compound 0.004048 µM), 0.755; with 17-AAG + Crizotinib (first compound 0.0128 µM), 0.101. Besides, the relative viability worked out at 0.0977 in the assay with 17-AAG + Crizotinib (first compound 0.04048 µM) and 0.08 in the assay with 17-AAG + Crizotinib (first compound 0.128 µM).
As to NCI-H650, the relative viability was found to be 0.882 with 17-AAG + AZD7762 (first compound 0.00128 µM); 1.11 with 17-AAG + AZD7762 (first compound 0.004048 µM); 0.63 in the assay with 17-AAG + AZD7762 (first compound 0.0128 µM); 0.324 with 17-AAG + AZD7762 (first compound 0.04048 µM); 0.263 in the assay with 17-AAG + AZD7762 (first compound 0.128 µM); 0.325 with 17-AAG + Palbociclib (first compound 0.00128 µM). Also, the relative viability turned out to be 0.356 with 17-AAG + Palbociclib (first compound 0.004048 µM); 0.371 with 17-AAG + Palbociclib (first compound 0.0128 µM); 0.339 with 17-AAG + Palbociclib (first compound 0.04048 µM); 0.161 in the assay with 17-AAG + Palbociclib (first compound 0.128 µM); 0.443 with 17-AAG + Vorinostat (first compound 0.00128 µM); 0.497 in the assay with 17-AAG + Vorinostat (first compound 0.004048 µM). In addition, the relative viability with 17-AAG + Vorinostat (first compound 0.0128 µM) came out at 0.477; in the assay with 17-AAG + Vorinostat (first compound 0.04048 µM), 0.32; with 17-AAG + Vorinostat (first compound 0.128 µM), 0.193; in the assay with 17-AAG + Crizotinib (first compound 0.00128 µM) it was 0.759; with 17-AAG + Crizotinib (first compound 0.004048 µM), 0.685; in the assay with 17-AAG + Crizotinib (first compound 0.0128 µM) it was 0.6. Also, the relative viability was found to be 0.476 in the assay with 17-AAG + Crizotinib (first compound 0.04048 µM) and 0.134 with 17-AAG + Crizotinib (first compound 0.128 µM).
With NCI-H727, the relative viability in the assay with 17-AAG + AZD7762 (first compound 0.00128 µM) was found to be 0.6; with 17-AAG + AZD7762 (first compound 0.004048 µM), 0.491; in the assay with 17-AAG + AZD7762 (first compound 0.0128 µM) it was 0.56; with 17-AAG + AZD7762 (first compound 0.04048 µM), 0.298; with 17-AAG + AZD7762 (first compound 0.128 µM), 0.305; with 17-AAG + Palbociclib (first compound 0.00128 µM), 0.661. Also, the relative viability with 17-AAG + Palbociclib (first compound 0.004048 µM) came out at 0.706; in the assay with 17-AAG + Palbociclib (first compound 0.0128 µM) it was 0.588; in the assay with 17-AAG + Palbociclib (first compound 0.04048 µM), 0.482; in the assay with 17-AAG + Palbociclib (first compound 0.128 µM), 0.425; with 17-AAG + Vorinostat (first compound 0.00128 µM), 1.36; in the assay with 17-AAG + Vorinostat (first compound 0.004048 µM), 1.05. The relative viability with 17-AAG + Vorinostat (first compound 0.0128 µM) was determined as 1.23; with 17-AAG + Vorinostat (first compound 0.04048 µM), 1.32; with 17-AAG + Vorinostat (first compound 0.128 µM) it was 0.511; with 17-AAG + Crizotinib (first compound 0.00128 µM) it was 0.968; in the assay with 17-AAG + Crizotinib (first compound 0.004048 µM) it was 0.74; in the assay with 17-AAG + Crizotinib (first compound 0.0128 µM), 0.586. Moreover, the relative viability with 17-AAG + Crizotinib (first compound 0.04048 µM) came out at 0.191; with 17-AAG + Crizotinib (first compound 0.128 µM), 0.188.
Consider NCI-H838, for which the relative viability with 17-AAG + AZD7762 (first compound 0.00128 µM) amounted to 0.978; with 17-AAG + AZD7762 (first compound 0.004048 µM) it was 0.849; in the assay with 17-AAG + AZD7762 (first compound 0.0128 µM), 0.669; with 17-AAG + AZD7762 (first compound 0.04048 µM) it was 0.633; with 17-AAG + AZD7762 (first compound 0.128 µM) it was 0.604; with 17-AAG + Palbociclib (first compound 0.00128 µM), 0.234. Further, the relative viability with 17-AAG + Palbociclib (first compound 0.004048 µM) was 0.209; with 17-AAG + Palbociclib (first compound 0.0128 µM), 0.133; with 17-AAG + Palbociclib (first compound 0.04048 µM) it was 0.14; with 17-AAG + Palbociclib (first compound 0.128 µM), 0.129; in the assay with 17-AAG + Vorinostat (first compound 0.00128 µM), 0.759; with 17-AAG + Vorinostat (first compound 0.004048 µM) it was 0.779. Moreover, the relative viability with 17-AAG + Vorinostat (first compound 0.0128 µM) worked out at 0.213; with 17-AAG + Vorinostat (first compound 0.04048 µM) it was 0.168; with 17-AAG + Vorinostat (first compound 0.128 µM), 0.169; with 17-AAG + Crizotinib (first compound 0.00128 µM) it was 0.748; with 17-AAG + Crizotinib (first compound 0.004048 µM), 0.729; with 17-AAG + Crizotinib (first compound 0.0128 µM) it was 0.259. The relative viability was 0.118 with 17-AAG + Crizotinib (first compound 0.04048 µM) and 0.112 with 17-AAG + Crizotinib (first compound 0.128 µM).
On to NCI-H1355, for which the relative viability in the assay with 17-AAG + AZD7762 (first compound 0.00128 µM) was determined as 0.795; in the assay with 17-AAG + AZD7762 (first compound 0.004048 µM), 0.682; in the assay with 17-AAG + AZD7762 (first compound 0.0128 µM) it was 0.311; in the assay with 17-AAG + AZD7762 (first compound 0.04048 µM) it was 0.236; in the assay with 17-AAG + AZD7762 (first compound 0.128 µM), 0.144; with 17-AAG + Palbociclib (first compound 0.00128 µM) it was 0.414. The relative viability with 17-AAG + Palbociclib (first compound 0.004048 µM) was determined as 0.386; with 17-AAG + Palbociclib (first compound 0.0128 µM) it was 0.385; with 17-AAG + Palbociclib (first compound 0.04048 µM), 0.302; with 17-AAG + Palbociclib (first compound 0.128 µM) it was 0.157; with 17-AAG + Vorinostat (first compound 0.00128 µM), 0.639; with 17-AAG + Vorinostat (first compound 0.004048 µM), 0.692. For the same cell line, the relative viability with 17-AAG + Vorinostat (first compound 0.0128 µM) was 0.607; in the assay with 17-AAG + Vorinostat (first compound 0.04048 µM), 0.228; with 17-AAG + Vorinostat (first compound 0.128 µM), 0.141; with 17-AAG + Crizotinib (first compound 0.00128 µM), 1.03; with 17-AAG + Crizotinib (first compound 0.004048 µM), 1.1; with 17-AAG + Crizotinib (first compound 0.0128 µM) it was 1.1. For the same cell line, the relative viability with 17-AAG + Crizotinib (first compound 0.04048 µM) was 0.93; with 17-AAG + Crizotinib (first compound 0.128 µM) it was 0.287.
For NCI-H1437, the relative viability in the assay with 17-AAG + AZD7762 (first compound 0.00128 µM) was determined as 1.1; with 17-AAG + AZD7762 (first compound 0.004048 µM), 1.07; with 17-AAG + AZD7762 (first compound 0.0128 µM), 0.651; with 17-AAG + AZD7762 (first compound 0.04048 µM), 0.271; with 17-AAG + AZD7762 (first compound 0.128 µM), 0.201; with 17-AAG + Palbociclib (first compound 0.00128 µM), 0.3. Moreover, the relative viability stood at 0.351 with 17-AAG + Palbociclib (first compound 0.004048 µM); 0.259 in the assay with 17-AAG + Palbociclib (first compound 0.0128 µM); 0.198 with 17-AAG + Palbociclib (first compound 0.04048 µM); 0.167 in the assay with 17-AAG + Palbociclib (first compound 0.128 µM); 0.83 with 17-AAG + Vorinostat (first compound 0.00128 µM); 0.77 with 17-AAG + Vorinostat (first compound 0.004048 µM). For the same cell line, the relative viability with 17-AAG + Vorinostat (first compound 0.0128 µM) was 0.731; with 17-AAG + Vorinostat (first compound 0.04048 µM), 0.328; with 17-AAG + Vorinostat (first compound 0.128 µM), 0.235; with 17-AAG + Crizotinib (first compound 0.00128 µM) it was 0.976; in the assay with 17-AAG + Crizotinib (first compound 0.004048 µM), 0.806; with 17-AAG + Crizotinib (first compound 0.0128 µM), 0.378. For the same cell line, the values for the relative viability with 17-AAG + Crizotinib (first compound 0.04048 µM) and with 17-AAG + Crizotinib (first compound 0.128 µM) were 0.126 and 0.0903, respectively.
Consider NCI-H1651, for which the relative viability with 17-AAG + AZD7762 (first compound 0.00128 µM) worked out at 0.463; with 17-AAG + AZD7762 (first compound 0.004048 µM), 0.512; with 17-AAG + AZD7762 (first compound 0.0128 µM), 0.482; in the assay with 17-AAG + AZD7762 (first compound 0.04048 µM), 0.364; with 17-AAG + AZD7762 (first compound 0.128 µM), 0.136; with 17-AAG + Palbociclib (first compound 0.00128 µM) it was 0.496. For the same cell line, the relative viability in the assay with 17-AAG + Palbociclib (first compound 0.004048 µM) is 0.563; with 17-AAG + Palbociclib (first compound 0.0128 µM), 0.511; with 17-AAG + Palbociclib (first compound 0.04048 µM) it was 0.451; with 17-AAG + Palbociclib (first compound 0.128 µM), 0.302; with 17-AAG + Vorinostat (first compound 0.00128 µM) it was 0.538; in the assay with 17-AAG + Vorinostat (first compound 0.004048 µM), 0.536. Further, the relative viability with 17-AAG + Vorinostat (first compound 0.0128 µM) is 0.545; in the assay with 17-AAG + Vorinostat (first compound 0.04048 µM) it was 0.578; with 17-AAG + Vorinostat (first compound 0.128 µM), 0.492; with 17-AAG + Crizotinib (first compound 0.00128 µM), 0.828; in the assay with 17-AAG + Crizotinib (first compound 0.004048 µM), 0.82; with 17-AAG + Crizotinib (first compound 0.0128 µM), 0.828. Besides, the relative viability with 17-AAG + Crizotinib (first compound 0.04048 µM) was 0.827; with 17-AAG + Crizotinib (first compound 0.128 µM) it was 0.571.
